One block for each molecule: values may come before it.
Experiments:
SW1573 [1] = conditions: Canon et al. 2019; cited from earlier work
SW1573 [2] = conditions: cited from earlier work
SW1573 cells = conditions: cited from earlier work
[3] = molecular target: NRAS G12C binding to BRAF RBD (Homo sapiens (Human), UniProt P01111+P62937, G12C); assay: Ras-Raf disruption/FRET/MOA assay, NRAS G12C; assay type: biochemical
Procedure, shortened: (§1)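 Cpd 10-pt 3-fold dilution, top 30 μM final; Ras/CypA/BRAF RBD mix 3 h, 25° C. Add anti-His Eu-W1024 10 nM + anti-GST APC 50 nM final, 1.5 h. Readout TR-FRET ratio decrease vs DMSO → IC50.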

[4] = molecular target: KRAS G13C binding to BRAF RBD (Homo sapiens (Human), UniProt P01116+P62937, G13C); assay: Ras-Raf disruption/FRET/MOA assay, KRAS G13C; assay type: biochemical
Chain of KRAS G13C binding to BRAF RBD (P01116 other isoform, or with tags, fused parts or gaps G13C): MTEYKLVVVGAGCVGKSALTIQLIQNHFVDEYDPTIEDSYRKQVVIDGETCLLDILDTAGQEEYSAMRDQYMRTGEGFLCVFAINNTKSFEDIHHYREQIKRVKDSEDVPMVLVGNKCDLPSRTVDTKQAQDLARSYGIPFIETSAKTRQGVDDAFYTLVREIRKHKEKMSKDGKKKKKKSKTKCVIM
Chain of KRAS G13C binding to BRAF RBD (P62937 whole entry, the tested form may be a part): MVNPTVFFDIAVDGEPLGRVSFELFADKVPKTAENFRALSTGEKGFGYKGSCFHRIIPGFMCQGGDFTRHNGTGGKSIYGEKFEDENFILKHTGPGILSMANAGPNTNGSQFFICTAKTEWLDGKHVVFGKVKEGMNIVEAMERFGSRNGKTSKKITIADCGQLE
From the text: Disruption of B-Raf Ras-binding Domain (BRAF^RBD) Interaction with K-Ras by Compounds of the Invention (also called a FRET assay or an MOA assay)
Note—The following protocol describes a procedure for monitoring disruption of K-Ras G12C(GMP-PNP) binding to BRAF^RBD by a compound of the invention. This protocol may also be executed substituting other Ras proteins or nucleotides.
The purpose of this biochemical assay was to measure the ability of test compounds to facilitate ternary complex formation between a nucleotide-loaded K-Ras isoform and Cyclophilin A; the resulting ternary complex disrupts binding to a BRAF^RBD construct, inhibiting K-Ras signaling through a RAF effector. Data is reported as IC50 values.
In assay buffer containing 25 mM HEPES pH 7.3, 0.002% Tween20, 0.1% BSA, 100 mM NaCl and 5 mM MgCl2, tagless Cyclophilin A, His6-K-Ras-GMPPNP, and GST-BRAF^RBD were combined in a 384-well assay plate at final concentrations of 25 μM, 12.5 nM and 50 nM, respectively. Compound was present in plate wells as a 10-point 3-fold dilution series starting at a final concentration of 30 μM. After incubation at 25° C. for 3 hours, a mixture of Anti-His Eu—W1024 and anti-GST allophycocyanin was then added to assay sample wells at final concentrations of 10 nM and 50 nM, respectively, and the reaction incubated for an additional 1.5 hours. […] Compounds that facilitate disruption of a K-Ras: RAF complex were identified as those eliciting a decrease in the TR-FRET ratio relative to DMSO control wells.

[5] = tested on: K-Ras G12C (NCI-H358 cells); assay: Potency assay: pERK in NCI-H358 cells; assay type: cell-based, human; conditions: Homo sapiens; NCI-H358 cells, 4 hours; read-out: pERK EC50 (H358 KRAS G12C)
Procedure, shortened: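 Cells plated the day before were exposed for 4 h at 37° C, 5% CO2 to a 10-point, 3-fold DMSO dilution series (10 mM top stock), in duplicate. Phospho-ERK was read by AlphaLISA SureFire Ultra or by In-Cell Western with DRAQ5 DNA stain, and IC50 came from a 4-parameter sigmoidal fit.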

[6] = molecular target: KRAS G12S binding to BRAF RBD (Homo sapiens (Human), UniProt P01116+P62937, G12S); assay: Ras-Raf disruption/FRET/MOA assay, KRAS G12S; assay type: biochemical
Chain of KRAS G12S binding to BRAF RBD (P01116 other isoform, or with tags, fused parts or gaps G12S): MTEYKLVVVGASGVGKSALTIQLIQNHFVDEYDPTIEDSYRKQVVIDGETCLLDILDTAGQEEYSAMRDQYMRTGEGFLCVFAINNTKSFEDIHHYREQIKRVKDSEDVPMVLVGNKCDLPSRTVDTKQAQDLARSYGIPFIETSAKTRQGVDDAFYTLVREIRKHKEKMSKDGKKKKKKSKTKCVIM
Chain of KRAS G12S binding to BRAF RBD (P62937 whole entry): as the sequence (P62937 whole entry, the tested form may be a part) above
Procedure, shortened: as §1

NCI-H358 (K-Ras G12C) = assay: CellTiter-Glo cell viability assay, NCI-H358; assay type: cell-based, human; conditions: Homo sapiens, NCI-H358, 120 h, 5-day treatment; read-out: H358 Cell Viability assay data (K-Ras G12C, IC50)
Procedure, shortened: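 Viability is measured as ATP-dependent luminescence (CellTiter-Glo) five days into compound treatment. Responses are normalized to vehicle (DMSO) wells and fitted by four-parameter logistic regression.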

[7] = molecular target: KRAS WT binding to BRAF RBD (Homo sapiens (Human), UniProt P01116+P62937); assay: Ras-Raf disruption/FRET/MOA assay, KRAS WT; assay type: biochemical
Chain of KRAS WT binding to BRAF RBD (P01116 other isoform, or with tags, fused parts or gaps): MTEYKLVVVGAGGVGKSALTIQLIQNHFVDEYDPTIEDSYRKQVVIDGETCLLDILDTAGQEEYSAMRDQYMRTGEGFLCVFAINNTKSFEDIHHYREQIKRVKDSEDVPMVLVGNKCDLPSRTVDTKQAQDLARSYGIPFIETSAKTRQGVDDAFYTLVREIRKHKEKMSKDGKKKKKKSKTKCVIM
Chain of KRAS WT binding to BRAF RBD (P62937 whole entry): as the sequence (P62937 whole entry, the tested form may be a part) above
Procedure, shortened: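 Compounds (top 30 μM, 3-fold, 10 points) promote Cyclophilin A (25 μM) ternary complex with His6-Ras-GMPPNP (12.5 nM), disrupting GST-BRAF RBD (50 nM) binding; 3 h, 25°C, 25 mM HEPES pH 7.3, 100 mM NaCl, 5 mM MgCl2. Detection reagents (Eu anti-His 10 nM, APC anti-GST 50 nM) added for 1.5 h; IC50 reported.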

[8] = molecular target: K-Ras G12C(GMP-PNP) binding to BRAF RBD (Homo sapiens (Human), UniProt P01116+P62937, G12C); assay: Disruption of BRAF RBD interaction with K-Ras (FRET / MOA assay), K-Ras G12C; assay type: biochemical; conditions: read-out: KRAS G12C FRET IC50
Chain of K-Ras G12C(GMP-PNP) binding to BRAF RBD (P01116 other isoform, or with tags, fused parts or gaps G12C): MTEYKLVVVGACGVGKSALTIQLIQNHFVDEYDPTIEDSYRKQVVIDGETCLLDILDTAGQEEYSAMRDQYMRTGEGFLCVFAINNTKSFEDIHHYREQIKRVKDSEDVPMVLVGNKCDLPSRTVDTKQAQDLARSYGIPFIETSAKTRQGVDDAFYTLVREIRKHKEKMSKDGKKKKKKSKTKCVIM
Chain of K-Ras G12C(GMP-PNP) binding to BRAF RBD (P62937 whole entry): as the sequence (P62937 whole entry, the tested form may be a part) above
Procedure, shortened: as §1

[9] = tested on: PAN02 tumors (SHP2 G503V); assay: PAN02 syngeneic tumor model (Example 2); assay type: in vivo, mouse; conditions: PAN02, immunocompetent mice; Compound SOS1-(A) 100 mg/kg daily oral
LN229 tumors (SHP2 A72S) = assay: LN229 CDX xenograft model (Example 5); assay type: in vivo, mouse; conditions: 100 mg/kg po qd
Description: (§2) Mice were implanted with (A) PAN02 tumor cells (1e6 cells/mouse) or (B) LN229 tumor cells in 50% matrigel (10e6 cells/mouse) subcutaneously in the flank. Once tumors reached an average size of ˜200 mm^3 mice were randomized to treatment groups and administration of test article or vehicle (2% HPMC E-50, 0.5% Tween-80 in 50 mM Sodium Citrate Buffer, pH 4.0). Body weight and tumor volume (using digital calipers) were measured twice a week until study endpoints. Compounds were administered by oral gavage daily.

[10] = tested on: PAN02 tumors (SHP2 G503V); assay: PAN02 syngeneic tumor model (Example 5); assay type: in vivo, mouse; conditions: 100 mg/kg po qd and 250 mg/kg po qd
Description: as §2

[11] = tested on: PAN02 tumors (PTPN11 G503V); assay: PAN02 PTPN11 G503V syngeneic model (Example 12); assay type: in vivo, mouse; conditions: PO daily; Compound SOS1-(C) 100 mg/kg for 7 days then 50 mg/kg, abemaciclib 30 mg/kg
Description: (§3) The combinatorial effects of Compound SOS1-(C) with Abemaciclib on tumor cell growth in vivo were evaluated in the murine pancreatic ductal adenocarcinoma PAN02 PTPN11G503V syngeneic model using female C57BL/6J mice (6-7 weeks old). Mice were implanted with PAN02 tumor cells in PBS (5 ×10^6cells/mouse) subcutaneously in the flank. Once tumors reached an average size of ˜130 mm3, mice were randomized to treatment groups to start the administration of test articles or control. All test articles were administered by oral gavage daily. Body weight and tumor volume (using calipers) was measured twice weekly until study endpoints.

[12] = tested on: LN229.E76K tumors (PTPN11 E76K); assay: LN229.E76K glioblastoma xenograft (Example 8); assay type: in vivo, mouse; conditions: PO daily; Compound SOS1-(C) 50 mg/kg, RMC-4550 30 mg/kg, cobimetinib […]
Description: 6-7 week athymic nude mice were implanted with LN229.E76K in 50% matirgel (10×10^6 cells/mouse) subcutaneously in the flank. Once tumors reached an average size of 200 mm^3, mice were randomized into treatment groups to start the administration of test articles or control. All treatments were administered daily by oral gavage. Body weight and tumor volume (using calipers) was measured twice weekly until study endpoint.

[13] = tested on: PAN02 tumors (PTPN11 G503V); assay: PAN02 PTPN11 G503V syngeneic model (Example 10); assay type: in vivo, mouse; conditions: PO daily
Description: as §3, with “cobimetinib” for “Abemaciclib”, “mm^3,” for “mm3,”

[14] = tested on: NCI-H358 KRASG12C xenograft; assay: In vivo NSCLC K-Ras G12C xenograft model; set-up: species or system BALB/c nude mice; conditions: single agent
Description: (§4) Mice were implanted with NCI-H358 tumor cells in 50% Matrigel (5×10^6 cells/mouse) subcutaneously in the flank. At the indicated tumor volume (dotted line, FIG. 2A), mice were randomized to treatment groups to start the administration of test articles or vehicle. […] Body weight and tumor volume (using calipers) was measured twice weekly until study endpoints.
Mice were implanted with NCI-H358 tumor cells in 50% Matrigel (5×10^6 cells/mouse) subcutaneously in the flank. At indicated tumor volume (dotted line, FIG. 3A), mice were randomized to treatment groups to start the administration of test articles or vehicle. […] Cobimetinib was administered by daily oral gavage at 2.5 mg/kg. The combination of Compound B and cobimetinib at their respective single-agent dose and regimen was also tested. Body weight and tumor volume (using calipers) was measured twice weekly until study endpoints.
as §4, with “At” for “At the”, “4A),” for “2A),”

[15] = tested on: LN229.E76K tumors (PTPN11 E76K); assay: LN229.E76K glioblastoma xenograft (Example 11); assay type: in vivo, mouse; conditions: PO daily; Compound SOS1-(B) 50 mg/kg, cobimetinib 2.5, and combination
Description: The combinatorial effects of Compound SOS1-(B) with cobimetinib on tumor cell growth in vivo were evaluated in a human engineered model of PTPN11-mutant glioblastoma, LN229.E76K xenograft model using female athymic nude mice (6-7 weeks old). Mice were implanted with LN229.E76K tumor cells in 50% Matrigel (10×10^6cells/mouse) subcutaneously in the flank. Once tumors reached an average size of ˜200 mm3, mice were randomized to treatment groups to start the administration of test articles or control. All test articles were administered by oral gavage daily. Body weight and tumor volume (using calipers) was measured twice weekly until study endpoints.

NCI-H358 cells = assay: 72-hour proliferation assay using CellTiter-Glo, NCI-H358; assay type: cell-based, human; conditions: read-out: EC50, 72-hour proliferation assay
Description: The plate was placed in the Incucyte S3 live cell analysis system (37° C., 5% CO2) and confluence was measured by recording images at 6-hour intervals for a maximum of 40 days, or until wells reached maximal confluence. Media and drug were replaced at 3-4 day intervals. Data are plotted as % confluence over the time course of the experiment for each single agent and respective combination (FIG. 5).

Chain of NRAS G12C binding to BRAF RBD (P01111 whole entry G12C): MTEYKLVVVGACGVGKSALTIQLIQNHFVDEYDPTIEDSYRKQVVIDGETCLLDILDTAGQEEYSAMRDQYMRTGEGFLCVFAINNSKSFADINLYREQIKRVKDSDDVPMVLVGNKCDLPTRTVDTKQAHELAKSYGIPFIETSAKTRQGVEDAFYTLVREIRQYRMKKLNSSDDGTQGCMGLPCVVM
Chain of NRAS G12C binding to BRAF RBD (P62937 whole entry): as the sequence (P62937 whole entry, the tested form may be a part) above

Structure (SMILES): C=CC(=O)N1CCN(c2nc(=O)n(-c3c(C)ccnc3C(C)C)c3nc(-c4c(O)cccc4F)c(F)cc23)[C@@H](C)C1 [AMG510, sotorasib]
sensitivity of SW1573 (SW1573 [1]): insensitive
sensitivity of cell line (SW1573 [2]): insensitive
sensitivity of cell line (SW1573 cells): insensitive

IC50 [3]: < 0.01 µM
IC50 [4]: < 0.01 µM
Structure (SMILES): CCn1c(-c2cnccc2COC)c2c3cc(ccc31)-c1cc(O)cc(c1)C[C@H](NC(=O)[C@H](C(C)C)N(C)C(=O)[C@H]1CCN(C(=O)C#CCN(C)C)C1)C(=O)N1CCC[C@H](N1)C(=O)OCC(C)(C)C2 [Compound A107]

EC50 [5]: < 5 µM
IC50 [6]: 0.01 to 0.1 µM
IC50 (NCI-H358 (K-Ras G12C)): < 0.01 µM
IC50 [7]: 0.01 to 0.1 µM
IC50 [4]: < 0.01 µM
IC50 [8]: < 0.01 µM
Structure (SMILES): CCn1c(-c2cccnc2[C@H](C)OC)c2c3cc(ccc31)-c1csc(n1)C[C@H](NC(=O)[C@H](C(C)C)N(C)C(=O)N1CC(C)(OC)C1)C(=O)N1CCC[C@H](N1)C(=O)OCC(C)(C)C2 [Compound A299]

Structure (SMILES): COC1(C(=O)N2Cc3nc(Cl)nc(C[C@H](C)c4cc(N)cc(C(F)(F)F)c4)c3C2)CCOCC1 [Compound SOS1-(A)]
inhibition of tumor growth in vivo [9]: substantially higher levels of tumor growth inhibition
inhibition of tumor growth in vivo (LN229 tumors (SHP2 A72S)): near complete inhibition of tumor growth
inhibition of tumor growth in vivo [10]: near complete inhibition of tumor growth

Structure (SMILES): CCN1CCN(Cc2ccc(Nc3ncc(F)c(-c4cc(F)c5nc(C)n(C(C)C)c5c4)n3)nc2)CC1 [abemaciclib]
tumor growth inhibition (TGI) [11]: 52%

Structure (SMILES): O=C(c1ccc(F)c(F)c1Nc1ccc(I)cc1F)N1CC(O)([C@@H]2CCCCN2)C1 [cobimetinib]
tumor growth inhibition (TGI) [12]: 41%
tumor growth inhibition (TGI) ([13]; Compound SOS1-(C) 100 mg/kg, cobimetinib […]): 38%
tumor growth inhibition (TGI) ([13]; cobimetinib 5 mg/kg): 49%
tumor growth response ([14]; A 100 mg/kg po daily 28 days, B 50 mg/kg iv twice weekly, cobimetinib […] po daily, C 60 mg/kg iv once weekly): tumor growth inhibition
mice with tumor regression (of 10) ([14]; regression = greater than 10% reduction of tumor volume, SHP2 inhibitor 30 mg/kg po daily): no tumor regressions
tumor growth inhibition (TGI) [15]: 62%

EC50 (NCI-H358 cells): 0.01 µM
Structure (SMILES): CC(=O)Nc1cccc(-n2c(=O)n(C3CC3)c(=O)c3c(Nc4ccc(I)cc4F)n(C)c(=O)c(C)c32)c1 [trametinib]

Reference: patent publication US20250195521A1 (Revolution Medicines, Inc., priority 2020, published 2025)
